# In US12589143B2, “Human anti-PD-L1 peptide vaccines and methods of their use” (priority 2019, dated 2026):
# “And” between values parts separate entries of the source, which are not always exact repeats. Equal values may be shown once. Where no end group is shown, it is not given here.
# How the values were obtained:
# [1] = tested on: MVF-PD-L1 peptide immunogen; test: Immunogenicity in Balb/c mice, experiment 2 (CT26/HER-2): ELISA of sera vs each MVF-PD-L1 peptide immunogen; format: in vivo
# Protocol: Immunogenicity of MVF-PD-L1 B-cell epitopes. New Zealand White rabbits were immunized with 1 mg of each MVF-peptide immunogens dissolved in dd H2O emulsified (1:1) in Montanide ISA 720 vehicle (Seppic) with 333 μg of N-acetylglucosamine-3yl-acetyl-1-alanyl-d-isoglutamine (nor-MDP). Rabbits were boosted with the same doses at 3-week's intervals. Blood was collected via the central auricular artery in rabbits. Blood was collected weekly (1Y+3, 2Y+1, 2Y+2,2Y+3, 3Y+1, 3Y+2 and sera tested for antibody titers by ELISA using the immunogens MVF-PD-L1 peptides. Sera (terminal) from rabbit (3Y+3) immunized with MVF-PD-1 peptide immunogens were tested individually versus the immunogen by ELISA. 200 ng/well peptide were used in duplicates to coat the ELISA plates. Titers are defined as the highest dilution of sera with an absorbance value of 0.2 after subtracting the blank. […]
# In order to verify the efficacy of the PD-L1 epitope vaccines in vivo in the CT26/HER-2 carcinoma cell line, Balb/c mice (10 mice/group) were immunized with 100 μg each of MVF-PD-L1 (36-53), MVF-PD-L1 (50-67), MVF-PD-L1 (95-112) and MVF-PD-L1 (130-147) emulsified with nor-MDP and Montanide 720 (1:1 ratio) SCHEME 2A (FIG. 15A). As detailed in SCHEME 2A-D (FIGS. 15A, 15B, 15C, and 15D), mice were immunized 3 times at 3 weeks intervals. […] All PD-L1 epitopes elicited high titers of PD-L1 anti-peptide antibodies by ELISA. […] We also investigated the combination of PD-1(92-110) with PD-L1-95.
# For each peptide, vaccine antibodies were raised in New Zealand white rabbits, purchased from Charles River Laboratories (Wilmington, MA, USA). Rabbits were immunized with 1 mg of MVF chimeric peptide emulsified in Montanide ISA 720 (Seppic, Paris, France) and boosted 3 times at three week intervals. For mouse experiments, mice, 6-8 weeks old, were immunized with 0.1 mg of peptide emulsified in ISA720 (1:1 ratio). Mice were boosted with the respective doses at 3-week intervals. Blood was then collected and sera were tested for antibody titers. Sera were collected weekly and peptide vaccine antibodies were purified by affinity chromatography using a protein A/G column and the concentration was measured using Spectrophometer. All experiments were performed in accordance with the U.S. Public Health Service Policy on Humane Care and Use of Laboratory animals and approved by the Ohio State University Institutional Animals Care and Use Committee, detailed in the accepted protocol.
# (§1) 6-8 weeks old BALB/c mice (Charles River, Wilmington, MA) were used as standard animal models. Mouse CT26 colon carcinoma cell line was purchased from American Type Culture Collection Cells and were regularly cultured in RPMI1640 medium containing 10% FBS. CT26/HER2 cells were kindly provided by M. Penichet. Vaccines were dissolved in sterile water and emulsified in Montanide ISA 720 (1:1). Female Balb/c mice (Charles River Laboratories) at the age of 6-8 weeks were immunized three times at 3-week intervals with 100 μg of each peptide vaccine, and 2 weeks after the third immunization, the mice were challenged with CT26 and/or CT26/HER-2 tumor cells, which were implanted subcutaneously (s.c) on the right flank (1×10^5 per mouse). 200 μg of rat α-mouse PD-L1 mAb 10F.9G2 (Bio X Cell, West Lebanon, NH) were administered intraperitoneally (i.p.), twice weekly following tumor inoculation in the control group. Mice were monitored and scored for the formation of palpable tumors on a daily basis and sacrificed if tumors became necrotic or exceeded the predetermined size of 2,000 mm^3. Tumor volumes were measured in cubic millimeters with calipers and calculated with the following formula: A×B^2×0.5, where A is the largest diameter, and B is the widest point perpendicular to length. During immunization, blood was drawn weekly and used in ELISA to monitor antibody titers.
# [2] = tested on: CT26 colon carcinoma cell line; test: CT26 WT tumor challenge in immunized Balb/c mice; format: in vivo
# Text: FIGS. 5A, 5B, 5C, and 5D show the experimental scheme to test the immunization with PD-L1 in Balb/c mice. […] Balb/c mice 6-8 weeks old, were immunized with MVF-peptide immunogens emulsified in ISA 720 with nor-MDP three times and three weeks apart. Mice were immunized with MVF-PD-L1 vaccine constructs [PD-L1(36-53), PD-L1(50-67), PD-L1(95-112), PD-L1(130-147)] prior to tumor challenge. Blood was collected weekly and sera tested for antibody titers by ELISA. Two weeks after the third immunization (3Y), the mice were engrafted with CT26 WT tumor cells 10^5 per mouse Control mice were treated twice weekly with PBS as negative control and twice weekly with anti-mPD-L1 mAb (10F.9G2) as positive control starting 2 days after tumor challenge. Tumor growths were observed twice weekly and measured by calipers.
# The peptide vaccines were dissolved in water and emulsified in Montanide ISA 720 (1:1) and 100 μg nor-MDP (N-acetylglucosamine-3yl-acetyl-1-alanyl-d-isoglutamine). Female Balb/c mice (Charles River Laboratories) at the age of 5 to 6 weeks were immunized three times at 3-week intervals with 100 μg peptide vaccine, and 15 days after the third immunization, the mice were challenged s.c. with CT-26 tumor cells (100,000 per mouse). Mice immunized with an irrelevant MVF peptide chimera were used as a negative control.
# Mice treated twice a week with anti-mouse PD-L1 MAb (Bio X Cell, West Lebanon, NH) 200 ug/dose was used as a positive control. Tumor growth was monitored for up to 18 days after challenge. During immunization, blood was drawn biweekly and used in ELISA to monitor Ab titers. The mice were euthanized at the end of treatment and tumors extracted and weighed samples of the tumors were saved for further study and for histological examination. The spleens were also collected for further examination.
# Two weeks after the third immunization (3Y), the mice were inoculated subcutaneously (s.c) with CT26 carcinoma cells (1×10^5 cells per mouse) and tumor formation was monitored on a daily basis afterwards. Mice treated with PBS served as negative control, and twice weekly treated mice with 200 μg/dose injections of anti-mouse PD-L1 monoclonal antibody (mAb clone 10F.9G2) served as positive control. Tumor growth was monitored daily and measured by caliper. […] PD-L1 B-cell epitope vaccines treatment had similar and significant reduction in tumor growth at day 16 post challenge as compared to negative control treatment with PBS (FIG. 9).
# as §1
# Tumor sizes were observed daily and measured by caliper. Tumor volumes were calculated by formula: Volume=(Length*Width*Width)/2. […]
sequence,measurement,setting,value
KLLSLIKGVIVHRLEGVEGPSLVTSEHELTCQAEGYPKAE (KLLSLIKGVIVHRLEGVEGPSLVTSEHELTCQAEGYPKAE-NH2) [PD-L1(130)],Immunogenicity (titers) 1′ Conc. 1:,"[1]; bleed 1Y + 3, (1to100)",1600
same,ELISA plate reading of serum,"[1]; bleed 1Y + 3, (1to100), dilution 800, duplicate wells",0.449 and 0.439
same,ELISA plate reading of serum,"[1]; bleed 1Y + 3, (1to100), dilution 1,600, duplicate wells",0.262 and 0.245
same,ELISA plate reading of serum,"[1]; bleed 1Y + 3, (1to100), dilution 6,400, duplicate wells",0.072 and 0.050
same,ELISA plate reading of serum,"[1]; bleed 1Y + 3, (1to100), dilution 12,800, duplicate wells",0.040 and 0.030
same,ELISA plate reading of serum,"[1]; bleed 1Y + 3, (1to100), dilution row 100, duplicate wells",1.023 and 1.039
same,ELISA plate reading of serum,"[1]; bleed 1Y + 3, (1to100), dilution row 200, duplicate wells",0.861 and 0.849
same,ELISA plate reading of serum,"[1]; bleed 1Y + 3, (1to100), dilution row 400, duplicate wells",0.671 and 0.672
same,ELISA plate reading of serum,"[1]; bleed 1Y + 3, (1to100), dilution row 3,200, duplicate wells",0.148 and 0.110
same,Immunogenicity (titers) 1′ Conc. 1:,"[1]; bleed 2Y + 1, (1to100)",6400
same,ELISA plate reading of serum,"[1]; bleed 2Y + 1, (1to100), dilution 800, duplicate wells, bleed 2Y + 1",1.118 and 1.079
same,ELISA plate reading of serum,"[1]; bleed 2Y + 1, (1to100), dilution 1,600, duplicate wells, bleed 2Y + 1",0.819 and 0.774
same,ELISA plate reading of serum,"[1]; bleed 2Y + 1, (1to100), dilution 6,400, duplicate wells, bleed 2Y + 1",0.311 and 0.286
same,ELISA plate reading of serum,"[1]; bleed 2Y + 1, (1to100), dilution 12,800, duplicate wells, bleed 2Y + 1",0.175 and 0.162
same,ELISA plate reading of serum,"[1]; bleed 2Y + 1, (1to100), dilution row 100, duplicate wells, bleed 2Y + 1",1.606 and 1.563
same,ELISA plate reading of serum,"[1]; bleed 2Y + 1, (1to100), dilution row 200, duplicate wells, bleed 2Y + 1",1.477 and 1.479
same,ELISA plate reading of serum,"[1]; bleed 2Y + 1, (1to100), dilution row 400, duplicate wells, bleed 2Y + 1",1.378 and 1.347
same,ELISA plate reading of serum,"[1]; bleed 2Y + 1, (1to100), dilution row 3,200, duplicate wells, bleed 2Y + 1",0.516 and 0.492
same,Immunogenicity (titers) 1′ Conc. 1:,"[1]; bleed 2Y + 2, (1to1k)",16000
same,ELISA plate reading of serum,"[1]; bleed 2Y + 2, (1to1k), dilution 800, duplicate wells",0.407 and 0.427
same,ELISA plate reading of serum,"[1]; bleed 2Y + 2, (1to1k), dilution 1,600, duplicate wells",0.280 and 0.257
same,ELISA plate reading of serum,"[1]; bleed 2Y + 2, (1to1k), dilution 6,400, duplicate wells",0.064 and 0.061
same,ELISA plate reading of serum,"[1]; bleed 2Y + 2, (1to1k), dilution row 100, duplicate wells",1.476 and 1.437
same,ELISA plate reading of serum,"[1]; bleed 2Y + 2, (1to1k), dilution row 200, duplicate wells",1.131 and 1.086
same,ELISA plate reading of serum,"[1]; bleed 2Y + 2, (1to1k), dilution row 400, duplicate wells",0.767 and 0.735
same,ELISA plate reading of serum,"[1]; bleed 2Y + 2, (1to1k), dilution row 3,200, duplicate wells",0.145 and 0.132
same,Immunogenicity (titers) 1′ Conc. 1:,"[1]; bleed 2Y + 3, (1to1k)",64000
same,ELISA plate reading of serum,"[1]; bleed 2Y + 3, (1to1k), dilution 800, duplicate wells",1.024 and 0.946
same,ELISA plate reading of serum,"[1]; bleed 2Y + 3, (1to1k), dilution 1,600, duplicate wells",0.699 and 0.615
same,ELISA plate reading of serum,"[1]; bleed 2Y + 3, (1to1k), dilution 6,400, duplicate wells",0.246 and 0.233
same,ELISA plate reading of serum,"[1]; bleed 2Y + 3, (1to1k), dilution row 100, duplicate wells",1.711 and 1.644
same,ELISA plate reading of serum,"[1]; bleed 2Y + 3, (1to1k), dilution row 200, duplicate wells",1.518 and 1.488
same,ELISA plate reading of serum,"[1]; bleed 2Y + 3, (1to1k), dilution row 400, duplicate wells",1.317 and 1.263
same,ELISA plate reading of serum,"[1]; bleed 2Y + 3, (1to1k), dilution row 3,200, duplicate wells",0.435 and 0.430
same,Immunogenicity (titers) 1′ Conc. 1:,"[1]; bleed 3Y + 1, (1to1k)",64000
same,ELISA plate reading of serum,"[1]; bleed 3Y + 1, (1to1k), dilution 800, duplicate wells, bleed 3Y + 1",1.176 and 1.158
same,ELISA plate reading of serum,"[1]; bleed 3Y + 1, (1to1k), dilution 1,600, duplicate wells, bleed 3Y + 1",0.801 and 0.729
same,ELISA plate reading of serum,"[1]; bleed 3Y + 1, (1to1k), dilution 6,400, duplicate wells, bleed 3Y + 1",0.219 and 0.206
same,ELISA plate reading of serum,"[1]; bleed 3Y + 1, (1to1k), dilution row 100, duplicate wells, bleed 3Y + 1",1.928 and 1.945
same,ELISA plate reading of serum,"[1]; bleed 3Y + 1, (1to1k), dilution row 200, duplicate wells, bleed 3Y + 1",1.823 and 1.707
same,ELISA plate reading of serum,"[1]; bleed 3Y + 1, (1to1k), dilution row 400, duplicate wells, bleed 3Y + 1",1.516 and 1.458
same,ELISA plate reading of serum,"[1]; bleed 3Y + 1, (1to1k), dilution row 3,200, duplicate wells, bleed 3Y + 1",0.438 and 0.427
same,Immunogenicity (titers) 1′ Conc. 1:,"[1]; bleed 3Y + 2, (1to1k)",64000
same,ELISA plate reading of serum,"[1]; bleed 3Y + 2, (1to1k), dilution 800, duplicate wells, bleed 3Y + 2",1.412 and 1.389
same,ELISA plate reading of serum,"[1]; bleed 3Y + 2, (1to1k), dilution 1,600, duplicate wells, bleed 3Y + 2",0.961 and 0.874
same,ELISA plate reading of serum,"[1]; bleed 3Y + 2, (1to1k), dilution 6,400, duplicate wells, bleed 3Y + 2",0.262
same,ELISA plate reading of serum,"[1]; bleed 3Y + 2, (1to1k), dilution row 100, duplicate wells, bleed 3Y + 2",2.313 and 2.334
same,ELISA plate reading of serum,"[1]; bleed 3Y + 2, (1to1k), dilution row 200, duplicate wells, bleed 3Y + 2",2.188 and 2.048
same,ELISA plate reading of serum,"[1]; bleed 3Y + 2, (1to1k), dilution row 400, duplicate wells, bleed 3Y + 2",1.819 and 1.749
same,ELISA plate reading of serum,"[1]; bleed 3Y + 2, (1to1k), dilution row 3,200, duplicate wells, bleed 3Y + 2",0.526 and 0.512
same,Immunogenicity (titers) 1′ Conc. 1:,"[1]; bleed 3Y + 3, (1to1k)",64000
same,ELISA plate reading of serum,"[1]; bleed 3Y + 3, (1to1k), dilution 800, duplicate wells",1.445 and 1.468
same,ELISA plate reading of serum,"[1]; bleed 3Y + 3, (1to1k), dilution 1,600, duplicate wells",0.909 and 0.999
same,ELISA plate reading of serum,"[1]; bleed 3Y + 3, (1to1k), dilution 6,400, duplicate wells",0.257
same,ELISA plate reading of serum,"[1]; bleed 3Y + 3, (1to1k), dilution row 100, duplicate wells",2.427 and 2.406
same,ELISA plate reading of serum,"[1]; bleed 3Y + 3, (1to1k), dilution row 200, duplicate wells",2.130 and 2.275
same,ELISA plate reading of serum,"[1]; bleed 3Y + 3, (1to1k), dilution row 400, duplicate wells",1.819 and 1.892
same,ELISA plate reading of serum,"[1]; bleed 3Y + 3, (1to1k), dilution row 3,200, duplicate wells",0.532 and 0.547
same,levels of lesions,[2],lowest levels of lesions
same,percentage of tumor growth inhibition compared to negative control,[2],Significant higher percentage of tumor growth inhibition
same,tumor inhibition versus PBS,[2]; Balb/c,significant inhibition of tumor growth
same,survival rate,[2]; Kaplan-Meier method,highest survival rate
same,average tumor growth inhibition,[2]; day 14 and 16,strongest average tumor growth inhibition
